Reference: patent US10894787B2, “Modulators of the GPR119 receptor and the treatment of disorders related thereto” (Arena Pharmaceuticals, Inc., priority 2010, dated 2021)

Molecular target: T1, GPR119 receptor (Homo sapiens, UniProt Q8TDV5)
T1 construct: expressed in transfected cells
T1 sequence (Q8TDV5 2-335 limits assumed): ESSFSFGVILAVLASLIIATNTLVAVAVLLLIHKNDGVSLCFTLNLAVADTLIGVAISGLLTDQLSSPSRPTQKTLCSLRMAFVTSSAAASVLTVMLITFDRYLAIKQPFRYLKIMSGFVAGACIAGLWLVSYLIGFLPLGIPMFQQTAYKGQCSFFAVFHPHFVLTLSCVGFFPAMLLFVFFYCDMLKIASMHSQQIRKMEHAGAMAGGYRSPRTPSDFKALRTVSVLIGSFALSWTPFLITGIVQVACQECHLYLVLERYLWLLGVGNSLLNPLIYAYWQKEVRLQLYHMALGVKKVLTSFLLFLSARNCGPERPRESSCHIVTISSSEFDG
Experiment: HTRF assay for direct cAMP measurement in CHO-K1 cells stably expressing the GPR119 receptor
Format: cell-based
Conditions: CHO-K1 cells stably expressing GPR119; 1 h incubation at room temperature; read-out: EC50, HTRF cAMP assay
Method: The GPR119 agonist, Compound 1, was evaluated in an HTRF® cAMP detection assay according to the manufacturer's instructions (Cisbio, cAMP Dynamic 2 Assay Kit; #62AM4PEJ) using CHO-K1 cells stably expressing the GPR119 receptor. Briefly, CHO-K1 cells were transduced with a lentiviral vector encoding the nucleotide sequence of GPR119 (NCBI mRNA and protein reference sequences: NM_178471.2 & NP_848566, (GPR119 has also been referred to as Glucose-Dependent Insulinotropic Receptor (GDIR)). The N-terminus of the GPR119 nucleotide sequence was modified to replace the first, methionine-coding codon with a nucleotide sequence coding for a standard, nine amino acid, hemagglutinin tag. Following transduction, cells expressing the GPR119 receptor were isolated and a single clone was isolated following standard dilution-cloning procedures. On the day of the assay, cultured CHO-GPR119 cells were harvested, suspended in assay buffer and plated into 384-well assay plates (PerkinElmer Proxiplate #6008280) at a density of 2,000 cells per well. A cAMP standard curve was included on each plate. Test compounds were solubilized in DMSO, serially diluted in DMSO and then diluted in assay buffer before adding to the cells. Test compounds were evaluated in triplicate, using 10-point, 5-fold serial dilutions starting at 10 μM. The final DMSO concentration in the assay was 0.5%. Compounds and cells were incubated for 1 h at room temperature and then detection reagents were added to each well (cAMP-D2 in cell lysis buffer, followed by europium cryptate-labeled anti-cAMP antibody). Plates were then incubated at room temperature for 1 h prior to reading. Time-resolved fluorescence measurements were collected on PerkinElmer Envision™ or BMG Pherastar™ microplate readers. The compound N-(2-fluoro-4-(methylsulfonyl)phenyl)-6-(4-(3-isopropyl-1,2,4-oxadiazol-5-yl)piperidin-1-yl)-5-nitropyrimidin-4-amine was used as a positive control in each runset while assay buffer containing 0.5% DMSO was used as the negative control.

CN(C)C(=O)c1ccc(Nc2ncnc(N3CCC(c4nc(C(C)(C)F)no4)CC3)c2F)c(F)c1 [Compound 1, 3-fluoro-4-(5-fluoro-6-(4-(3-(2-fluoropropan-2-yl)-1,2,4-oxadiazol-5-yl)piperidin-1-yl)pyrimidin-4-ylamino)-N,N-dimethylbenzamide]
EC50: 23.4 nM
